Patent US20230085307A1, “PYRIDAZINONE COMPOUND AND HERBICIDE” (NISSAN CHEMICAL CORPORATION, priority 2019, published 2023)

Tests used:
late watergrass = test: Test Example 1: herbicidal activity, application before weed generation under submerged conditions (Table 16, symbol A); type: in vivo, late watergrass (Echinochloa oryzicola); conditions: amount of applied herbicide 320 g/ha
How it was run: (§1)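 Emulsion formulation, water-diluted to set dose, was put onto the flooded surface (4 cm depth, alluvial soil) the same day weeds were sown and 2.5-leaf rice transplanted. After 3 weeks at 25-30 °C under glass, each species was rated 0 (≤5% kill) to 5 (≥90% kill).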

lambsquarters [1] = test: Test Example 4: herbicidal effect by soil treatment (Table 19, symbol O); type: in vivo, lambsquarters (Chenopodium album); conditions: amount of applied herbicide 320 g/ha
How it was run: (§2)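 Step 1: sow seeds in sterilized diluvial soil, cover ~1.5 cm. Step 2: spray diluted emulsion onto soil surface at predetermined rate. Step 3: greenhouse, 25–30° C, three weeks. Step 4: grade effect on each plant by earlier criteria.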

Chinese sprangletop = test: Test Example 3: herbicidal effect by foliage application, Wagner pot (Table 18, symbol D); type: in vivo, chinese sprangletop (Leptochloa chinensis); conditions: amount of applied herbicide 320 g/ha
How it was run: (§3)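 Plants were sown in alluvial soil held under 0.1–0.5 cm standing water and grown 14 days in a greenhouse at 25–30 °C. An emulsifiable formulation, water-diluted to the set dose, was then sprayed onto the foliage, and effects were scored three weeks later using previously defined criteria.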

lambsquarters [2] = test: Test Example 5: herbicidal effect by foliage application, plastic box (Table 20, symbol O); type: in vivo, lambsquarters (Chenopodium album); conditions: foliage application, 320 g/ha, evaluated 3 weeks after application
How it was run: (§4)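 Foliar spray test: emulsion formulation diluted in water to a set application rate, sprayed onto 14-day-old plants raised in diluvial soil at 25° C to 30° C under glass. Both herbicidal effect and crop effect rated visually three weeks later.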

redroot pigweed [3] = test: Test Example 4: herbicidal effect by soil treatment (Table 19, symbol N); type: in vivo, redroot pigweed (Amaranthus retroflexus); conditions: amount of applied herbicide 320 g/ha
How it was run: as §2

green foxtail [4] = test: Test Example 5: herbicidal effect by foliage application, plastic box (Table 20, symbol G); type: in vivo, green foxtail (Setaria viridis); conditions: foliage application, 320 g/ha, evaluated 3 weeks after application
How it was run: as §4

southern crabgrass [5] = test: Test Example 5: herbicidal effect by foliage application, plastic box (Table 20, symbol F); type: in vivo, southern crabgrass (Digitaria ciliaris); conditions: foliage application, 320 g/ha, evaluated 3 weeks after application
How it was run: as §4

oval-leafed pondweed = test: Test Example 1: herbicidal activity, application before weed generation under submerged conditions (Table 16, symbol C); type: in vivo, oval-leafed pondweed (Monochoria vaginalis); conditions: amount of applied herbicide 320 g/ha
How it was run: as §1

redroot pigweed [6] = test: Test Example 5: herbicidal effect by foliage application, plastic box (Table 20, symbol N); type: in vivo, redroot pigweed (Amaranthus retroflexus); conditions: foliage application, 320 g/ha, evaluated 3 weeks after application
How it was run: as §4

windgrass [7] = test: Test Example 5: herbicidal effect by foliage application, plastic box (Table 20, symbol L); type: in vivo, windgrass (Apera spica-venti); conditions: foliage application, 320 g/ha, evaluated 3 weeks after application
How it was run: as §4

blackgrass [8] = test: Test Example 5: herbicidal effect by foliage application, plastic box (Table 20, symbol J); type: in vivo, blackgrass (Alopecurus myosuroides); conditions: foliage application, 320 g/ha, evaluated 3 weeks after application
How it was run: as §4

wild oat [9] = test: Test Example 5: herbicidal effect by foliage application, plastic box (Table 20, symbol I); type: in vivo, wild oat (Avena fatua); conditions: foliage application, 320 g/ha, evaluated 3 weeks after application
How it was run: as §4

chickweed [10] = test: Test Example 4: herbicidal effect by soil treatment (Table 19, symbol P); type: in vivo, common chickweed (Stellaria media); conditions: amount of applied herbicide 320 g/ha
How it was run: as §2

blackgrass [11] = test: Test Example 4: herbicidal effect by soil treatment (Table 19, symbol J); type: in vivo, blackgrass (Alopecurus myosuroides); conditions: amount of applied herbicide 320 g/ha
How it was run: as §2

persian speedwell [12] = test: Test Example 4: herbicidal effect by soil treatment (Table 19, symbol R); type: in vivo, Persian speedwell (Veronica persica); conditions: amount of applied herbicide 320 g/ha
How it was run: as §2

persian speedwell [13] = test: Test Example 5: herbicidal effect by foliage application, plastic box (Table 20, symbol R); type: in vivo, Persian speedwell (Veronica persica); conditions: foliage application, 320 g/ha, evaluated 3 weeks after application
How it was run: as §4

barnyard grass [14] = test: Test Example 4: herbicidal effect by soil treatment (Table 19, symbol H); type: in vivo, barnyard grass (Echinochloa crus-galli); conditions: amount of applied herbicide 320 g/ha
How it was run: as §2

green foxtail [15] = test: Test Example 4: herbicidal effect by soil treatment (Table 19, symbol G); type: in vivo, green foxtail (Setaria viridis); conditions: amount of applied herbicide 320 g/ha
How it was run: as §2

chickweed [16] = test: Test Example 5: herbicidal effect by foliage application, plastic box (Table 20, symbol P); type: in vivo, common chickweed (Stellaria media); conditions: foliage application, 320 g/ha, evaluated 3 weeks after application
How it was run: as §4

velvetleaf [17] = test: Test Example 4: herbicidal effect by soil treatment (Table 19, symbol M); type: in vivo, velvetleaf (Abutilon theophrasti); conditions: amount of applied herbicide 320 g/ha
How it was run: as §2

Italian ryegrass [18] = test: Test Example 5: herbicidal effect by foliage application, plastic box (Table 20, symbol K); type: in vivo, Italian ryegrass (Lolium multiflorum); conditions: foliage application, 320 g/ha, evaluated 3 weeks after application
How it was run: as §4

windgrass [19] = test: Test Example 4: herbicidal effect by soil treatment (Table 19, symbol L); type: in vivo, windgrass (Apera spica-venti); conditions: amount of applied herbicide 320 g/ha
How it was run: as §2

Japanese bulrush = test: Test Example 1: herbicidal activity, application before weed generation under submerged conditions (Table 16, symbol B); type: in vivo, Japanese bulrush (Schoenoplectus juncoides); conditions: amount of applied herbicide 320 g/ha
How it was run: as §1

barnyard grass [20] = test: Test Example 5: herbicidal effect by foliage application, plastic box (Table 20, symbol H); type: in vivo, barnyard grass (Echinochloa crus-galli); conditions: foliage application, 320 g/ha, evaluated 3 weeks after application
How it was run: as §4

Italian ryegrass [21] = test: Test Example 4: herbicidal effect by soil treatment (Table 19, symbol K); type: in vivo, Italian ryegrass (Lolium multiflorum); conditions: amount of applied herbicide 320 g/ha
How it was run: as §2

false cleavers [22] = test: Test Example 5: herbicidal effect by foliage application, plastic box (Table 20, symbol Q); type: in vivo, false cleavers (Galium spurium); conditions: foliage application, 320 g/ha, evaluated 3 weeks after application
How it was run: as §4

southern crabgrass [23] = test: Test Example 4: herbicidal effect by soil treatment (Table 19, symbol F); type: in vivo, southern crabgrass (Digitaria ciliaris); conditions: amount of applied herbicide 320 g/ha
How it was run: as §2

rice flat sedge = test: Test Example 3: herbicidal effect by foliage application, Wagner pot (Table 18, symbol E); type: in vivo, rice flat sedge (Cyperus iria); conditions: amount of applied herbicide 320 g/ha
How it was run: as §3

false cleavers [24] = test: Test Example 4: herbicidal effect by soil treatment (Table 19, symbol Q); type: in vivo, false cleavers (Galium spurium); conditions: amount of applied herbicide 320 g/ha
How it was run: as §2

wild oat [25] = test: Test Example 4: herbicidal effect by soil treatment (Table 19, symbol I); type: in vivo, wild oat (Avena fatua); conditions: amount of applied herbicide 320 g/ha
How it was run: as §2

velvetleaf [26] = test: Test Example 5: herbicidal effect by foliage application, plastic box (Table 20, symbol M); type: in vivo, velvetleaf (Abutilon theophrasti); conditions: foliage application, 320 g/ha, evaluated 3 weeks after application
How it was run: as §4

barnyard grass [27] = test: Test Example 3: herbicidal effect by foliage application, Wagner pot (Table 18, symbol H); type: in vivo, barnyard grass (Echinochloa crus-galli); conditions: amount of applied herbicide 320 g/ha
How it was run: as §3

COc1ccc2c(-c3c(O)c(C)nn(C)c3=O)c(-c3ccccc3OC)oc2c1 [10-001]
Herbicidal effect, A: late watergrass (late watergrass): 0 (Herbicidal rate of 5% or less (almost no effect))
O: lambsquarters, herbicidal effect grade (lambsquarters [1]): 0 (Herbicidal rate of 5% or less (almost no effect))
Herbicidal effect on D (Chinese sprangletop), foliage application (Chinese sprangletop): 0 (Herbicidal rate of 5% or less (almost no effect))
O (lambsquarters) herbicidal effect grade (lambsquarters [2]): 4 (Herbicidal rate of 70% or more and less than 90%)
N: redroot pigweed, herbicidal effect grade (redroot pigweed [3]): 0 (Herbicidal rate of 5% or less (almost no effect))
G (green foxtail) herbicidal effect grade (green foxtail [4]): 3 (Herbicidal rate of 40% or more and less than 70%)
F (southern crabgrass) herbicidal effect grade (southern crabgrass [5]): 2 (Herbicidal rate of 20% or more and less than 40%)
Herbicidal effect, C: oval-leafed pondweed (oval-leafed pondweed): 3 (Herbicidal rate of 40% or more and less than 70%)
N (redroot pigweed) herbicidal effect grade (redroot pigweed [6]): 3 (Herbicidal rate of 40% or more and less than 70%)
L (windgrass) herbicidal effect grade (windgrass [7]): 3 (Herbicidal rate of 40% or more and less than 70%)
J (blackgrass) herbicidal effect grade (blackgrass [8]): 0 (Herbicidal rate of 5% or less (almost no effect))
I (wild oat) herbicidal effect grade (wild oat [9]): 0 (Herbicidal rate of 5% or less (almost no effect))
P: chickweed, herbicidal effect grade (chickweed [10]): 0 (Herbicidal rate of 5% or less (almost no effect))
J: blackgrass, herbicidal effect grade (blackgrass [11]): 0 (Herbicidal rate of 5% or less (almost no effect))
R: persian speedwell, herbicidal effect grade (persian speedwell [12]): 5 (Herbicidal rate of 90% or more (almost completely withered))
R (persian speedwell) herbicidal effect grade (persian speedwell [13]): 5 (Herbicidal rate of 90% or more (almost completely withered))
H: barnyard grass, herbicidal effect grade (barnyard grass [14]): 0 (Herbicidal rate of 5% or less (almost no effect))
G: green foxtail, herbicidal effect grade (green foxtail [15]): 0 (Herbicidal rate of 5% or less (almost no effect))
P (chickweed) herbicidal effect grade (chickweed [16]): 5 (Herbicidal rate of 90% or more (almost completely withered))
M: velvetleaf, herbicidal effect grade (velvetleaf [17]): 0 (Herbicidal rate of 5% or less (almost no effect))
K (Italian ryegrass) herbicidal effect grade (Italian ryegrass [18]): 0 (Herbicidal rate of 5% or less (almost no effect))
L: windgrass, herbicidal effect grade (windgrass [19]): 0 (Herbicidal rate of 5% or less (almost no effect))
Herbicidal effect, B: Japanese bulrush (Japanese bulrush): 0 (Herbicidal rate of 5% or less (almost no effect))
H (barnyard grass) herbicidal effect grade (barnyard grass [20]): 3 (Herbicidal rate of 40% or more and less than 70%)
K: Italian ryegrass, herbicidal effect grade (Italian ryegrass [21]): 0 (Herbicidal rate of 5% or less (almost no effect))
Q (false cleavers) herbicidal effect grade (false cleavers [22]): 4 (Herbicidal rate of 70% or more and less than 90%)
F: southern crabgrass, herbicidal effect grade (southern crabgrass [23]): 0 (Herbicidal rate of 5% or less (almost no effect))
Herbicidal effect on E (rice flat sedge), foliage application (rice flat sedge): 2 (Herbicidal rate of 20% or more and less than 40%)
Q: false cleavers, herbicidal effect grade (false cleavers [24]): 0 (Herbicidal rate of 5% or less (almost no effect))
I: wild oat, herbicidal effect grade (wild oat [25]): 0 (Herbicidal rate of 5% or less (almost no effect))
M (velvetleaf) herbicidal effect grade (velvetleaf [26]): 3 (Herbicidal rate of 40% or more and less than 70%)
Herbicidal effect on H (barnyard grass), foliage application (barnyard grass [27]): 3 (Herbicidal rate of 40% or more and less than 70%)
